# Results from publication PMC10066365, “Nemacol is a small molecule inhibitor of C. elegans vesicular acetylcholine transporter with anthelmintic potential” (Nature Communications, 2023).
# Values joined by “and” are separate entries in the source; they are usually repeats but may differ in a detail not shown here. Equal values may be shown once.
# How the values were obtained:
# C. elegans = assay: Suppression of trichlorfon (AChE inhibitor) paralysis, double dose-response, scored after 80 min; format: in vivo, Caenorhabditis elegans; conditions: wild-type, bio rep 1-3
# C. elegans DA1316 = assay: C. elegans 3-day liquid viability assay, DA1316 avr-14; avr-15; […]; format: in vivo, Caenorhabditis elegans; conditions: for total animals normalized to corresponding controls: DA1316
structure (smiles),measurement,setting,value
O=[N+]([O-])c1ccc(N2CCN(CC3CCCCC3)CC2)cc1 [Nemacol-1],% para (percentage of animals able to adopt a clear sinusoidal wave pattern upon touch on the nose),C. elegans; Nemacol-1 3.75 uM + trichlorfon 0 uM,100%
same,% para (percentage of animals able to adopt a clear sinusoidal wave pattern upon touch on the nose),C. elegans; Nemacol-1 3.75 uM + trichlorfon 25 uM,96.4286% and 92.8571% and 100%
same,% para (percentage of animals able to adopt a clear sinusoidal wave pattern upon touch on the nose),C. elegans; Nemacol-1 3.75 uM + trichlorfon 50 uM,96.4286% and 85.7143% and 75%
same,% para (percentage of animals able to adopt a clear sinusoidal wave pattern upon touch on the nose),C. elegans; Nemacol-1 3.75 uM + trichlorfon 100 uM,28.5714% and 32.1429% and 39.2857%
same,% para (percentage of animals able to adopt a clear sinusoidal wave pattern upon touch on the nose),C. elegans; Nemacol-1 3.75 uM + trichlorfon 200 uM,10.7143% and 7.143%
same,% para (percentage of animals able to adopt a clear sinusoidal wave pattern upon touch on the nose),C. elegans; Nemacol-1 3.75 uM + trichlorfon 400 uM,3.571% and 0%
same,% para (percentage of animals able to adopt a clear sinusoidal wave pattern upon touch on the nose),C. elegans; Nemacol-1 3.75 uM + trichlorfon 800 uM,0%
same,% para (percentage of animals able to adopt a clear sinusoidal wave pattern upon touch on the nose),C. elegans; Nemacol-1 15 uM + trichlorfon 0 uM,96.4286% and 100%
same,% para (percentage of animals able to adopt a clear sinusoidal wave pattern upon touch on the nose),C. elegans; Nemacol-1 15 uM + trichlorfon 25 uM,100%
same,% para (percentage of animals able to adopt a clear sinusoidal wave pattern upon touch on the nose),C. elegans; Nemacol-1 15 uM + trichlorfon 50 uM,92.8571% and 46.4286% and 64.2857%
same,% para (percentage of animals able to adopt a clear sinusoidal wave pattern upon touch on the nose),C. elegans; Nemacol-1 15 uM + trichlorfon 100 uM,82.1429% and 53.5714% and 71.4286%
same,% para (percentage of animals able to adopt a clear sinusoidal wave pattern upon touch on the nose),C. elegans; Nemacol-1 15 uM + trichlorfon 400 uM,14.2857% and 7.143%
same,% para (percentage of animals able to adopt a clear sinusoidal wave pattern upon touch on the nose),C. elegans; Nemacol-1 15 uM + trichlorfon 800 uM,0% and 3.571%
same,% para (percentage of animals able to adopt a clear sinusoidal wave pattern upon touch on the nose),C. elegans; Nemacol-1 30 uM + trichlorfon 0 uM,100%
same,% para (percentage of animals able to adopt a clear sinusoidal wave pattern upon touch on the nose),C. elegans; Nemacol-1 30 uM + trichlorfon 25 uM,100%
same,% para (percentage of animals able to adopt a clear sinusoidal wave pattern upon touch on the nose),C. elegans; Nemacol-1 30 uM + trichlorfon 50 uM,85.7143% and 89.2857% and 92.8571%
same,% para (percentage of animals able to adopt a clear sinusoidal wave pattern upon touch on the nose),C. elegans; Nemacol-1 30 uM + trichlorfon 100 uM,78.5714% and 82.1429%
same,% para (percentage of animals able to adopt a clear sinusoidal wave pattern upon touch on the nose),C. elegans; Nemacol-1 30 uM + trichlorfon 200 uM,53.5714% and 32.1429% and 39.2857%
same,% para (percentage of animals able to adopt a clear sinusoidal wave pattern upon touch on the nose),C. elegans; Nemacol-1 30 uM + trichlorfon 800 uM,3.571%
same,% para (percentage of animals able to adopt a clear sinusoidal wave pattern upon touch on the nose),C. elegans; Nemacol-1 60 uM + trichlorfon 0 uM,50% and 82.1429% and 71.4286%
same,% para (percentage of animals able to adopt a clear sinusoidal wave pattern upon touch on the nose),C. elegans; Nemacol-1 60 uM + trichlorfon 25 uM,85.7143% and 75% and 78.5714%
same,% para (percentage of animals able to adopt a clear sinusoidal wave pattern upon touch on the nose),C. elegans; Nemacol-1 60 uM + trichlorfon 50 uM,78.5714% and 57.1429% and 67.8571%
same,% para (percentage of animals able to adopt a clear sinusoidal wave pattern upon touch on the nose),C. elegans; Nemacol-1 60 uM + trichlorfon 100 uM,53.5714% and 67.8571%
same,% para (percentage of animals able to adopt a clear sinusoidal wave pattern upon touch on the nose),C. elegans; Nemacol-1 60 uM + trichlorfon 200 uM,35.7143% and 57.1429% and 50%
same,% para (percentage of animals able to adopt a clear sinusoidal wave pattern upon touch on the nose),C. elegans; Nemacol-1 60 uM + trichlorfon 800 uM,3.571% and 7.143%
same,% para (percentage of animals able to adopt a clear sinusoidal wave pattern upon touch on the nose),C. elegans; Nemacol-1 […] + trichlorfon 25 uM,100%
same,% para (percentage of animals able to adopt a clear sinusoidal wave pattern upon touch on the nose),C. elegans; Nemacol-1 […] + trichlorfon 800 uM,0%
same,total animals normalized to corresponding controls,C. elegans DA1316; ivermectin 0 uM + nemacol-1 5.72205e-5,117.10
same,total animals normalized to corresponding controls,C. elegans DA1316; ivermectin 0 uM + nemacol-1 0.0146484,91.26
same,total animals normalized to corresponding controls,C. elegans DA1316; ivermectin 0 uM + nemacol-1 3.75,106.04
same,total animals normalized to corresponding controls,C. elegans DA1316; ivermectin 0 uM + nemacol-1 7.5,111.01
same,total animals normalized to corresponding controls,C. elegans DA1316; ivermectin 0 uM + nemacol-1 15,100.31
same,total animals normalized to corresponding controls,C. elegans DA1316; ivermectin 0 uM + nemacol-1 30,100.23
same,total animals normalized to corresponding controls,C. elegans DA1316; ivermectin 0 uM + nemacol-1 60,99.19
same,total animals normalized to corresponding controls,C. elegans DA1316; ivermectin 0.0009375 uM + nemacol-1 0.000114441,112.95
same,total animals normalized to corresponding controls,C. elegans DA1316; ivermectin 0.0009375 uM + nemacol-1 0.0292969,124.80
same,total animals normalized to corresponding controls,C. elegans DA1316; ivermectin 0.0009375 uM + nemacol-1 3.75,113.26
same,total animals normalized to corresponding controls,C. elegans DA1316; ivermectin 0.0009375 uM + nemacol-1 7.5,122.67
same,total animals normalized to corresponding controls,C. elegans DA1316; ivermectin 0.0009375 uM + nemacol-1 15,99.45
same,total animals normalized to corresponding controls,C. elegans DA1316; ivermectin 0.0009375 uM + nemacol-1 30,96.12
same,total animals normalized to corresponding controls,C. elegans DA1316; ivermectin 0.0009375 uM + nemacol-1 60,95.59
same,total animals normalized to corresponding controls,C. elegans DA1316; ivermectin 0.001875 uM + nemacol-1 0.000228882,117.74
same,total animals normalized to corresponding controls,C. elegans DA1316; ivermectin 0.001875 uM + nemacol-1 0.0585938,95.40
same,total animals normalized to corresponding controls,C. elegans DA1316; ivermectin 0.001875 uM + nemacol-1 3.75,107.81
same,total animals normalized to corresponding controls,C. elegans DA1316; ivermectin 0.001875 uM + nemacol-1 7.5,110.79
same,total animals normalized to corresponding controls,C. elegans DA1316; ivermectin 0.001875 uM + nemacol-1 15,103.40
same,total animals normalized to corresponding controls,C. elegans DA1316; ivermectin 0.001875 uM + nemacol-1 30,87.76
same,total animals normalized to corresponding controls,C. elegans DA1316; ivermectin 0.001875 uM + nemacol-1 60,95.73
same,total animals normalized to corresponding controls,C. elegans DA1316; ivermectin 0.00375 uM + nemacol-1 0.000457764,105.05
same,total animals normalized to corresponding controls,C. elegans DA1316; ivermectin 0.00375 uM + nemacol-1 0.117188,110.64
same,total animals normalized to corresponding controls,C. elegans DA1316; ivermectin 0.00375 uM + nemacol-1 3.75,115.16
same,total animals normalized to corresponding controls,C. elegans DA1316; ivermectin 0.00375 uM + nemacol-1 7.5,104.58
same,total animals normalized to corresponding controls,C. elegans DA1316; ivermectin 0.00375 uM + nemacol-1 15,92.41
same,total animals normalized to corresponding controls,C. elegans DA1316; ivermectin 0.00375 uM + nemacol-1 30,95.26
same,total animals normalized to corresponding controls,C. elegans DA1316; ivermectin 0.00375 uM + nemacol-1 60,95.05
same,total animals normalized to corresponding controls,C. elegans DA1316; ivermectin 0.03 uM + nemacol-1 0.00366211,117.10
same,total animals normalized to corresponding controls,C. elegans DA1316; ivermectin 0.03 uM + nemacol-1 0.9375,95.99
same,total animals normalized to corresponding controls,C. elegans DA1316; ivermectin 0.03 uM + nemacol-1 3.75,106.91
same,total animals normalized to corresponding controls,C. elegans DA1316; ivermectin 0.03 uM + nemacol-1 7.5,93.50
same,total animals normalized to corresponding controls,C. elegans DA1316; ivermectin 0.03 uM + nemacol-1 15,78.16
same,total animals normalized to corresponding controls,C. elegans DA1316; ivermectin 0.03 uM + nemacol-1 30,62.13
same,total animals normalized to corresponding controls,C. elegans DA1316; ivermectin 0.03 uM + nemacol-1 60,54.19
same,total animals normalized to corresponding controls,C. elegans DA1316; ivermectin 0.06 uM + nemacol-1 0.00732422,74.90
same,total animals normalized to corresponding controls,C. elegans DA1316; ivermectin 0.06 uM + nemacol-1 1.875,82.85
same,total animals normalized to corresponding controls,C. elegans DA1316; ivermectin 0.06 uM + nemacol-1 3.75,87.36
same,total animals normalized to corresponding controls,C. elegans DA1316; ivermectin 0.06 uM + nemacol-1 7.5,84.34
same,total animals normalized to corresponding controls,C. elegans DA1316; ivermectin 0.06 uM + nemacol-1 15,45.86
same,total animals normalized to corresponding controls,C. elegans DA1316; ivermectin 0.06 uM + nemacol-1 30,52.87
same,total animals normalized to corresponding controls,C. elegans DA1316; ivermectin 0.06 uM + nemacol-1 60,31.96
same,synergy with Ivermectin in triple mutant compared to wild type,"C. elegans DA1316; avr-14, avr-15, glc-1 triple mutant",0.6 fold
